US4228293A, “Iodo-A-23187 derivatives” (Eli Lilly and Company, priority 1978, dated 1980)
Entries after “also recorded” stand apart in the source; their conditions may differ.

Columns and labels:
[1] = test system: Staphylococcus aureus (H-Heatley strain, NRRL B-314); assay: Antibacterial bioassay (Westhead); type: cell-based; details: S. aureus H-Heatley NRRL B-314 bioassay; free acid
Excerpt: The compounds of this invention are useful antibacterial agents. In this aspect, these compounds may be used in the same manner in which the parent antibiotic is used, as described in U.S. Pat. No. 3,923,823. A bioassay for the antibacterial activity of A-23187 has been described by J. E. Westhead in Antimicrobial Agents and Chemotherapy 11 (5), 916-918 (1977). The test organism for this bioassay is Staphylococcus aureus (H-Heatley strain, NRRL B-314).

[2] = Acute toxicity in mice, intraperitoneal; details: mouse, in vivo, ip, mg/kg × 1, free acid
Method: The compounds of the present invention are, in general, less toxic than the parent antibiotic. Table II summarizes the acute toxicities of representative compounds in mice, expressed as LD50, when the compounds are administered intraperitoneally.

[3] = molecular target: cation transport ATPase in liver mitochondria; assay: In vitro inhibition of cation transport ATPase in liver mitochondria; type: biochemical
Excerpt: In yet another aspect, the compounds of this invention are active as inhibitors of the enzyme ATPase. ATPase, an alkali-metal-sensitive enzyme found in cell membranes, is involved in the energy necessary for active transport. "Active transport" refers to the energy-requiring series of operations whereby intracellular and extracellular fluids maintain their compositions. Inhibitors of ATPase reduce the energy required for active transport. Table III summarizes the results of in vitro tests measuring inhibition of cation transport ATPase in liver mitochondria [measured as half effective concentration (Ic50) in mcg/ml].

[4] = cited from earlier work

Row | Structure (SMILES) | Bioassay [1] | LD50 [2] | half effective concentration (Ic50), ATPase induced by K^+ monazomycin [3] | half effective concentration (Ic50), ATPase induced by CaCl2 [3] | transport of Mg^2+ compared with Ca^2+ ([4]; Mg^2+ vs Ca^2+) | discrimination for divalent over monovalent cations ([4]; divalent vs monovalent cations)
1 | CNc1ccc2oc(C[C@H]3O[C@@]4(CC[C@H]3C)O[C@H]([C@H](C)C(=O)c3cc(I)c(I)[nH]3)[C@H](C)C[C@H]4C)nc2c1C(=O)O [23,24-diiodo-A-23187, 5-(methylamino)-2-[[3β,9α,11β-trimethyl-8-[1α-methyl-2-oxo-2-(4,5-diiodo-1H-pyrrol-2-yl)ethyl]-1,7-dioxaspiro-[5.5]undec-2β-yl]methyl]-4-benzoxazolecarboxylic acid] | 560 µg/mL | 100 mg/kg | 0.8 µg/mL | – | – | –
2 | CNc1ccc2oc(C[C@H]3O[C@@]4(CC[C@H]3C)O[C@H]([C@H](C)C(=O)c3cc(I)c[nH]3)[C@H](C)C[C@H]4C)nc2c1C(=O)O [23-iodo-A-23187, 5-(methylamino)-2-[[3β,9α,11β-trimethyl-8-[1α-methyl-2-oxo-2-(4-iodo-1H-pyrrol-2-yl)ethyl]-1,7-dioxaspiro[5.5]undec-2β-yl]methyl]-4-benzoxazolecarboxylic acid] | 1331 µg/mL | 25 mg/kg | < 0.05 µg/mL | 5 µg/mL | – | –
3 | CNc1ccc2oc(C[C@H]3O[C@@]4(CC[C@H]3C)O[C@H]([C@H](C)C(=O)c3ccc[nH]3)[C@H](C)C[C@H]4C)nc2c1C(=O)O [A-23187] | 1060 µg/mL | 5.8 mg/kg | 0.5 µg/mL | 0.5 µg/mL | transports Mg^2+ with a similar efficiency to Ca^2+ | substantially selective for the transport of divalent over monovalent cations; also recorded: not complete
